Assay results published in ChEMBL document CHEMBL1201862, “PubChem BioAssay data set” (2004).
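Where inhibition never reached the appropriate level, the endpoint shown equals the highest concentration tested. Otherwise, values were interpolated linearly from a five-concentration, 48-hour dose response in 96-well plates. GI50 = concentration required for 50% inhibition of growth.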 Active and inactive are the calls of the source. No stated cut-off is given here; in the data, active = GI50 up to about 1.1 µM and inactive = higher. Where a SMILES comes first, the peptide text is derived from it. [ ]: non-standard residue; d: D form. The star is where a group is joined. ξ: configuration not given here. ξD = NC(CC(=O)O)C(=O)O; Boc = CC(C)(C)OC(=O)*; Aib = CC(C)(N)C(=O)O; OtBu = CC(C)(C)O*

Assays:
Test in all cases: growth of human tumour cells (NCI), 48 h
OVCAR-8 = test system: OVCAR-8
U-251 = test system: U-251
A549 = test system: A549
MOLT-4 = test system: MOLT-4
UACC-257 = test system: UACC-257
HCT-116 = test system: HCT-116
SR = test system: SR
HL-60 = test system: HL-60
UACC-62 = test system: UACC-62
A498 = test system: A498
Hs-578T = test system: Hs-578T
HT-29 = test system: HT-29
K562 = test system: K562
HCT-15 = test system: HCT-15
BT-549 = test system: BT-549
PC-3 = test system: PC-3
SF-295 = test system: SF-295
NCI-H23 = test system: NCI-H23
NCI/ADR-RES = test system: NCI/ADR-RES
MDA-N = test system: MDA-N
SK-MEL-5 = test system: SK-MEL-5
KM12 = test system: KM12
MDA-MB-231 = test system: MDA-MB-231
MDA-MB-435 = test system: MDA-MB-435
EKVX = test system: EKVX
HOP-92 = test system: HOP-92
ACHN = test system: ACHN
LOX IMVI = test system: LOX IMVI
CAKI-1 = test system: CAKI-1
DU-145 = test system: DU-145
IGROV-1 = test system: IGROV-1
SF-268 = test system: SF-268
SK-MEL-28 = test system: SK-MEL-28
SK-MEL-2 = test system: SK-MEL-2
CCRF-CEM = test system: CCRF-CEM
OVCAR-4 = test system: OVCAR-4
RXF 393 = test system: RXF 393
M14 = test system: M14
RPMI-8226 = test system: RPMI-8226
SNB-19 = test system: SNB-19
Malme-3M = test system: Malme-3M
HOP-62 = test system: HOP-62
SW-620 = test system: SW-620
COLO 205 = test system: COLO 205
NCI-H522 = test system: NCI-H522
SNB-75 = test system: SNB-75
SF-539 = test system: SF-539
TK-10 = test system: TK-10
OVCAR-3 = test system: OVCAR-3
786-0 = test system: 786-0
NCI-H226 = test system: NCI-H226
OVCAR-5 = test system: OVCAR-5
SN12C = test system: SN12C
T47D = test system: T47D
NCI-H460 = test system: NCI-H460
HCC 2998 = test system: HCC 2998
SK-OV-3 = test system: SK-OV-3
MCF7 = test system: MCF7
UO-31 = test system: UO-31

Cc1nc(=O)[nH]c(NCCNCCO)c1C(=O)Nc1cccc2cc3ccccc3cc12
GI50 (OVCAR-8): > 100 µM (inactive)
GI50 (U-251): > 100 µM (inactive)
GI50 (A549): > 100 µM (inactive)
GI50 (MOLT-4): > 100 µM (inactive)
GI50 (UACC-257): > 100 µM (inactive)
GI50 (HCT-116): > 100 µM (inactive)
GI50 (SR): > 100 µM (inactive)
GI50 (HL-60): > 100 µM (inactive)
GI50 (UACC-62): > 100 µM (inactive)
GI50 (A498): > 100 µM (inactive)
GI50 (Hs-578T): > 100 µM (inactive)
GI50 (HT-29): > 100 µM (inactive)
GI50 (K562): > 100 µM (inactive)
GI50 (HCT-15): > 100 µM
GI50 (BT-549): > 100 µM (inactive)
GI50 (PC-3): > 100 µM (inactive)
GI50 (SF-295): > 100 µM (inactive)
GI50 (NCI-H23): > 100 µM (inactive)
GI50 (NCI/ADR-RES): > 100 µM (inactive)
GI50 (MDA-N): > 100 µM (inactive)
GI50 (SK-MEL-5): > 100 µM (inactive)
GI50 (KM12): > 100 µM (inactive)
GI50 (MDA-MB-231): > 100 µM (inactive)
GI50 (MDA-MB-435): > 100 µM (inactive)
GI50 (EKVX): > 100 µM (inactive)
GI50 (HOP-92): > 100 µM (inactive)
GI50 (ACHN): > 100 µM (inactive)
GI50 (LOX IMVI): > 100 µM (inactive)
GI50 (CAKI-1): > 100 µM (inactive)
GI50 (DU-145): > 100 µM (inactive)
GI50 (IGROV-1): > 100 µM (inactive)
GI50 (SF-268): > 100 µM (inactive)
GI50 (SK-MEL-28): > 100 µM (inactive)
GI50 (SK-MEL-2): > 100 µM (inactive)
GI50 (CCRF-CEM): > 100 µM (inactive)
GI50 (OVCAR-4): > 100 µM (inactive)
GI50 (RXF 393): > 100 µM (inactive)
GI50 (M14): > 100 µM (inactive)
GI50 (RPMI-8226): > 100 µM (inactive)
GI50 (SNB-19): > 100 µM (inactive)
GI50 (Malme-3M): > 100 µM (inactive)
GI50 (HOP-62): > 100 µM (inactive)
GI50 (SW-620): > 100 µM (inactive)
GI50 (COLO 205): > 100 µM (inactive)
GI50 (NCI-H522): > 100 µM (inactive)
GI50 (SNB-75): > 100 µM (inactive)
GI50 (SF-539): > 100 µM (inactive)
GI50 (TK-10): > 100 µM (inactive)
GI50 (OVCAR-3): > 100 µM (inactive)
GI50 (786-0): > 100 µM (inactive)
GI50 (NCI-H226): > 100 µM (inactive)
GI50 (OVCAR-5): > 100 µM (inactive)
GI50 (SN12C): > 100 µM (inactive)
GI50 (T47D): > 100 µM (inactive)
GI50 (NCI-H460): > 100 µM (inactive)
GI50 (HCC 2998): > 100 µM (inactive)

COC(=O)C(C)(C)NC(=O)C(C)(C)NC(=O)C(CC(=O)OC(C)(C)C)NC(=O)OC(C)(C)C (stereo unspecified) (Boc-[ξD](OtBu)-[Aib]-[Aib]-OMe)
GI50 (OVCAR-8): > 100 µM (inactive)
GI50 (U-251): > 100 µM (inactive)
GI50 (A549): > 100 µM (inactive)
GI50 (MOLT-4): > 100 µM (inactive)
GI50 (UACC-257): > 100 µM (inactive)
GI50 (HCT-116): > 100 µM (inactive)
GI50 (UACC-62): > 100 µM (inactive)
GI50 (A498): > 100 µM (inactive)
GI50 (Hs-578T): > 100 µM (inactive)
GI50 (HT-29): > 100 µM (inactive)
GI50 (K562): > 100 µM (inactive)
GI50 (HCT-15): > 100 µM
GI50 (BT-549): > 100 µM (inactive)
GI50 (PC-3): > 100 µM (inactive)
GI50 (SF-295): > 100 µM (inactive)
GI50 (NCI-H23): > 100 µM (inactive)
GI50 (NCI/ADR-RES): > 100 µM (inactive)
GI50 (MDA-N): > 10 µM (inactive)
GI50 (SK-MEL-5): > 100 µM (inactive)
GI50 (KM12): > 100 µM (inactive)
GI50 (MDA-MB-231): > 100 µM (inactive)
GI50 (MDA-MB-435): > 100 µM (inactive)
GI50 (EKVX): > 100 µM (inactive)
GI50 (HOP-92): > 100 µM (inactive)
GI50 (ACHN): > 100 µM (inactive)
GI50 (LOX IMVI): > 100 µM (inactive)
GI50 (SK-OV-3): > 100 µM (inactive)
GI50 (CAKI-1): > 100 µM (inactive)
GI50 (DU-145): > 100 µM (inactive)
GI50 (IGROV-1): > 100 µM (inactive)
GI50 (SF-268): 3.71 µM (inactive)
GI50 (SK-MEL-28): > 100 µM (inactive)
GI50 (SK-MEL-2): > 100 µM (inactive)
GI50 (CCRF-CEM): > 100 µM (inactive)
GI50 (OVCAR-4): > 100 µM (inactive)
GI50 (RXF 393): > 100 µM (inactive)
GI50 (M14): > 100 µM (inactive)
GI50 (RPMI-8226): > 100 µM (inactive)
GI50 (SNB-19): > 100 µM (inactive)
GI50 (Malme-3M): > 100 µM (inactive)
GI50 (HOP-62): > 100 µM (inactive)
GI50 (SW-620): > 100 µM (inactive)
GI50 (COLO 205): > 100 µM (inactive)
GI50 (NCI-H522): > 100 µM (inactive)
GI50 (SNB-75): > 100 µM (inactive)
GI50 (SF-539): > 100 µM (inactive)
GI50 (TK-10): > 100 µM (inactive)
GI50 (MCF7): > 100 µM (inactive)
GI50 (OVCAR-3): > 100 µM (inactive)
GI50 (786-0): > 100 µM (inactive)
GI50 (NCI-H226): > 100 µM (inactive)
GI50 (OVCAR-5): > 100 µM (inactive)
GI50 (T47D): > 100 µM (inactive)
GI50 (UO-31): > 100 µM (inactive)
GI50 (NCI-H460): > 100 µM (inactive)
